Key:
[1] = tested on: MDCK-MDR1 cell monolayers; test: Assessment of efflux in MDCK cells transfected with the human MDR1 gene (MDCK assay); type: in vitro ADME, canine; details: for Papp (a-b) mean: MDCK-MDR1, apical-to-basal, pH 7.4, 37° C.; for efflux ratio: MDCK-MDR1, Papp (b-a) divided by Papp (a-b)
Method: Assessment of Efflux in Madin-Darby Canine Kidney Cells Transfected with the Human MDR1 Gene (MDCK Assay)
Apparent permeability coefficients (PE) of the compounds across the MDCK-MDR1 cell monolayers are measured (pH 7.4, 37° C.) in apical-to-basal (AB) and basal-to-apical (BA) transport direction. AB permeability (PEAB) represents drug absorption from the blood into the brain and BA permeability (PEBA) drug efflux from the brain back into the blood via both passive permeability as well as active transport mechanisms mediated by efflux and uptake transporters that are expressed on the MDCK-MDR1 cells, predominantly by the overexpressed human MDR1 P-gp. The compounds are assigned to permeability/absorption classes by comparison of the AB permeabilities with the AB permeabilities of reference compounds with known in vitro permeability and oral absorption in the human. Identical or similar permeabilities in both transport directions indicate passive permeation, vectorial permeability points to additional active transport mechanisms. Higher PEBA than PEAB indicates the involvement of active efflux mediated by MDR1 P-gp. Active transport is concentration-dependently saturable.
MDCK-MDR1 cells (1-2×10e5 cells/1 cm2 area) are seeded on filter inserts (Costar transwell polycarbonate or PET filters, 0.4 μm pore size) and cultured (DMEM) for 7 days. Subsequently, the MDR1 expression is boosted by culturing the cells with 5 mM sodium butyrate in full medium for 2 days. Compounds are dissolved in appropriate solvent (like DMSO, 1-20 mM stock solutions). […] The transport solution (TL) is applied to the apical or basolateral donor side for measuring A-B or B-A permeability (3 filter replicates), respectively. The receiver side contains the same buffer as the donor side. Samples are collected at the start and end of experiment from the donor and at various time intervals for up to 2 hours also from the receiver side for concentration measurement by HPLC-MS/MS or scintillation counting. Sampled receiver volumes are replaced with fresh receiver solution. Efflux ratio is calculated dividing the Papp (b-a) values by the Papp (a-b) values.

[2] = target: PDE10 (Homo sapiens (Human), UniProt Q9Y233); test: Phosphodiesterase (PDE) 10 assay with fluorescent substrate (IMAP, fluorescence polarization); type: biochemical; details: labeled cAMP 30 nM
Method: (§1) The PDE reaction cleaves cAMP to AMP. The IMAP system (Molecular Device) using fluorescence polarization (FP) as detection principle was used to measure enzyme activity. A fluorescent labeled cAMP was used as substrate for the reaction, generating a labeled AMP. The fluorescent AMP binds specifically to the large M(III)-based nano-particles which reduces the rotational speed of the substrate and thus increases its polarization.
(§2) The inhibition of PDE 2A or 10 enzyme activity was assessed using IMAP-Phosphodiesterase-cAMP fluorescence labeled substrate (Molecular Devices, Order No. R7506), IMAP TR-FRET screening express (Molecular Devices, Order No. R8160, the TR-FRET component will not be used) and PDE 2A or PDE10 protein expressed upon baculovirus infection in SF9 cells. The cells were incubated after infection for ˜3 days and protein production was confirmed by Western Blot. The cells were collected by centrifugation and the pellet frozen in liquid nitrogen before it was resuspended in PBS containing 1% Triton X-100 and protease inhibitors. After 45 min incubation on ice, the cell debris was removed by centrifugation (13.000 rpm, 30 min).
(§3) All reactions were performed in 384 well plates, Perkin Elmer black optiplates and IMAP reaction buffer with 0.1% Tween20 (kit component)
(§4) Compounds were serial diluted in DMSO. With an intermediate dilution step with reaction buffer DMSO concentration was reduced to achieve 1% DMSO in the assay reaction. Setup of the assay started with 10 μl enzyme (˜10 ng/well, depending on prep. batch), 5 μl compound, reaction was started by addition of 5 μl labeled cAMP (30 nM, final concentration), immediately mixed for 15 seconds on a Eppendorf mixmate (2000 rpm) followed by an incubation at room temperature for 90 minutes in the dark. Reaction is stopped by adding of 60 μl binding buffer for FP/cAMP (kit component).
(§5) Each assay plate contained wells with vehicle controls (1% DMSO) for the measurement of non-inhibited reaction (=100% control) and wells without enzyme as 0% controls.

[3] = target: PDE 2A (Homo sapiens (Human), UniProt O00408); test: Phosphodiesterase (PDE) 2A assay with fluorescent substrate (IMAP, fluorescence polarization); type: biochemical; details: labeled cAMP 30 nM, read-out: PDE2 IC50
Method: as §1, §2, §3, §4, §5

[4] = Plasma protein binding with equilibrium dialysis, human plasma; type: in vitro ADME; details: human plasma, 1.0 μM, equilibrium dialysis 2 hours 37° C.
Description: (§6) Plasma Protein Binding (Determination of Human and Rat Plasma Protein Binding with Equilibrium Dialysis)
(§7) This equilibrium dialysis (ED) technique is used to determine the approximate in vitro fractional binding of test compounds to human and rat plasma proteins.
(§8) Dianorm Teflon dialysis cells (micro 0.2) are used. Each cell consists of a donor and an acceptor chamber, separated by an ultrathin semipermeable membrane with a 5 kDa molecular weight cutoff.
(§9) Stock solutions for each test compound are prepared in DMSO at 1 mM and diluted to a final concentration of 1.0 μM. The subsequent dialysis solutions are prepared in pooled human and rat plasma (with NaEDTA)
(§10) Aliquots of 200 μL dialysis buffer (100 mM potassium phosphate, pH 7.4) are dispensed into the buffer chamber. Aliquots of 200 μL test compound dialysis solution are dispensed into the plasma chambers. Incubation is carried out for 2 hours under rotation at 37° C.
(§11) At the end of the dialysis period, the dialysate is transferred into reaction tubes. The tubes for the buffer fraction contain 0.2 ml Acetonitril/water (80/20). Aliquots of 25 μl of the plasma dialysate are transferred into deep well plates and mixed with 25 μl Acetonitril/water (80/20), 25 μl buffer, 25 μl calibration solution and 25 μl Internal Standard solution. Protein precipitation is done by adding 200 μl Acetonitrile. Aliquots of 50 μl of the buffer dialysate are transferred into deep well plates and mixed with 25 μl blank plasma, 25 μl Internal Standard solution and 200 μl Acetonitril. Samples are measured on HPLC-MS/MS-Systems and evaluated with Analyst-Software.
(§12) Percent bound is calculated with the formula: % bound=(plasma concentration−buffer concentration/plasma concentration)×100 and % free is calculated as difference.

[5] = Metabolic stability in pooled human liver microsomes; type: in vitro ADME; details: human liver microsomes, 1 mg/mL protein, 1 μM compound, 37° C.
Method: The metabolic degradation of the test compound was assayed at 37° C. with pooled liver microsomes from various species. The final incubation volume of 100 μl per time point contains TRIS buffer pH 7.6 at room temperature (0.1 M), magnesium chloride (5 mM), microsomal protein (1 mg/mL for human and dog, 0.5 mg/mL for other species) and the test compound at a final concentration of 1 μM. Following a short preincubation period at 37° C., the reactions were initiated by addition of betanicotinamide adenine dinucleotide phosphate, reduced form (NADPH, 1 mM), and terminated by transferring an aliquot into solvent after different time points. […] The half-life was determined by the slope of the semi-logarithmic plot of the concentration-time profile.

[6] = Plasma protein binding with equilibrium dialysis, rat plasma; type: in vitro ADME; details: rat plasma, 1.0 μM, equilibrium dialysis 2 hours 37° C.
Description: as §6, §7, §8, §9, §10, §11, §12

Sequence of PDE10 (Q9Y233 whole entry): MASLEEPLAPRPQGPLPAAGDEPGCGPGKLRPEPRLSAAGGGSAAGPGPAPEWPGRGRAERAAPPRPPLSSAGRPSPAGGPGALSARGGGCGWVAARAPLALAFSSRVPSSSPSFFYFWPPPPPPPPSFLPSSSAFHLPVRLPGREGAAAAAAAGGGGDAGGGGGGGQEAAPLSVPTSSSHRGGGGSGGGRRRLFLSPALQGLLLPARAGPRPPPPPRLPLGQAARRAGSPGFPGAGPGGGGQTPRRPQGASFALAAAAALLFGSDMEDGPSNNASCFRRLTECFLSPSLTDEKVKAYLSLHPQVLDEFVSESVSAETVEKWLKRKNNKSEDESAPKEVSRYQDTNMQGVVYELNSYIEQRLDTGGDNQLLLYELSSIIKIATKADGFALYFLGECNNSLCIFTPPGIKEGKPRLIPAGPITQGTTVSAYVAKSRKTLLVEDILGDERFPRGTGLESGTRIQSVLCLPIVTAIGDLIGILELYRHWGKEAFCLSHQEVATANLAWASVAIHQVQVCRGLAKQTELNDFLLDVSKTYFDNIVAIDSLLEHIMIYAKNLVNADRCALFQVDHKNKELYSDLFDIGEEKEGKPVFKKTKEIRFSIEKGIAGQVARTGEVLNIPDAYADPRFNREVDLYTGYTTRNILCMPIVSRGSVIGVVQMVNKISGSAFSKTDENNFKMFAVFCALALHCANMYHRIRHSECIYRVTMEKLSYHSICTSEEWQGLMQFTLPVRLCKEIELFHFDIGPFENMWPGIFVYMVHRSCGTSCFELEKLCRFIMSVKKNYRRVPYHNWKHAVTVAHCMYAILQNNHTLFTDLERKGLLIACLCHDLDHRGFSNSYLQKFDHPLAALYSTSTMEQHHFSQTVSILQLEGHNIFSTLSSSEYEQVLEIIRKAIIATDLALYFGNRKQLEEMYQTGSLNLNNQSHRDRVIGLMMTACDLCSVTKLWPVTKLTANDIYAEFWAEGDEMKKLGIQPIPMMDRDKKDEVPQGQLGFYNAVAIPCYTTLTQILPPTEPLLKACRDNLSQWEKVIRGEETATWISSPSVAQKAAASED
Sequence of PDE 2A (O00408 whole entry, species assumed): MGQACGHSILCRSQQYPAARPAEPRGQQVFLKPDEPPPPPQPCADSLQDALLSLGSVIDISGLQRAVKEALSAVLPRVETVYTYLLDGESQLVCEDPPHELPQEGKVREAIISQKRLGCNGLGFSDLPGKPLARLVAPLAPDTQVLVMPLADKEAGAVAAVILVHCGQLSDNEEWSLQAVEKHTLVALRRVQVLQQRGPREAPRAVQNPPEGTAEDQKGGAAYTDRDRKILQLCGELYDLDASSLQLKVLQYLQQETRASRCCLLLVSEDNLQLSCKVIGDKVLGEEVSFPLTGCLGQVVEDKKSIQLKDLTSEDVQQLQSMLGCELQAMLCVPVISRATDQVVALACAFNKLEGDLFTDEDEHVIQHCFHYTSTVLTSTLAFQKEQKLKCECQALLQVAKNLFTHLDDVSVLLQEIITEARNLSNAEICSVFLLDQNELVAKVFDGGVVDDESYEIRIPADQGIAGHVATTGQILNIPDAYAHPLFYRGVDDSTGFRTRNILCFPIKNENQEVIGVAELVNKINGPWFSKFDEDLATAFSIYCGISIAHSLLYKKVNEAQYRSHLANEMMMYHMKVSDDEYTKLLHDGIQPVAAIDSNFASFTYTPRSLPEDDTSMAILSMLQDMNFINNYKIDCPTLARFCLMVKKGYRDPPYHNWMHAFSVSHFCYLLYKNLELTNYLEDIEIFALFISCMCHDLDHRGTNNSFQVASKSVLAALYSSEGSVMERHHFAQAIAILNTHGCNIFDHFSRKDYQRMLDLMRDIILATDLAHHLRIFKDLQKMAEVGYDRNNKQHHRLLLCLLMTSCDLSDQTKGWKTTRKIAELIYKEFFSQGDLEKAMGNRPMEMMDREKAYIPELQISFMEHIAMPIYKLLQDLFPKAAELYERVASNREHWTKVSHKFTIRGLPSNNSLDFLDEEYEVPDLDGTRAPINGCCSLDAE

Row | SMILES | Papp (a-b) mean [1] | IC50 [2] [µM] | IC50 [3] [µM] | efflux ratio [1] | PPB HUM % BINDING [4] [%] | Half-life t½ human [5] [h] | PPB RAT % BINDING [6] [%]
1 | O=C(NC1(c2ccc(C(F)(F)F)cc2F)COCC1O)c1cnn2cc(C3CC3)cnc12 (single isomer, unassigned) [Example 70] | 20 10-6 cm/s | > 10 | 1.25 | 2.1 | 79.4 | 1.05 | –
2 | Cc1cnc2c(C(=O)NC3(c4ccc(C(F)(F)F)cc4F)CCOCC3O)cnn2c1 (single isomer, unassigned) [Example 81b] | 64 10-6 cm/s | > 10 | – | – | 65.3 | >2.17 | 66.2
3 | O=C(NC1(c2ccc(C(F)(F)F)cc2F)COCC1O)c1cnn2cc(C3CC3)cnc12 (single isomer, unassigned) [Example 71] | 23 10-6 cm/s | > 10 | 0.013 | 1.9 | 81.1 | >2.17 | –

More lines, now with the values ahead:

Row | Papp (a-b) mean [1] | IC50 [2] [µM] | IC50 [3] [µM] | efflux ratio [1] | PPB HUM % BINDING [4] [%] | Half-life t½ human [5] [h] | PPB RAT % BINDING [6] [%] | SMILES
4 | 23 10-6 cm/s | – | – | – | – | – | – | Cc1cnc2c(C(=O)NC3(c4ccc(C(F)(F)F)cc4F)CCOCC3(C)O)cnn2c1 (single isomer, unassigned) [Example 84b]
5 | 31 10-6 cm/s | – | – | – | – | – | – | Cc1cnc2c(C(=O)NC3(c4ccc(C(F)(F)F)cc4F)CCOCC3(C)O)cnn2c1 (single isomer, unassigned) [Example 84a]
